The record followed here is EPA's ToxRefDB 2.

As usually defined, the LOAEL is the lowest dose or exposure tested at which an adverse effect was seen. A word on the NOAEL: it is the highest tested level that showed no adverse finding.

Data set [1] relates to rat. Conditions: Sub-acute repeat dose toxicity, sprague dawley, Oral, Gavage/Intubation, dose end: 14 day, group: systemic.
In data set [2] the test system is rat. Conditions: Sub-acute repeat dose toxicity, sprague dawley, Oral, Gavage/Intubation, dose end: 29 day, group: systemic.
Data set [3] relates to primate. Conditions: Sub-acute repeat dose toxicity, Oral, Gavage/Intubation, dose end: 23 day, group: systemic.
Data set [4] has as its system primate. To be noted: Sub-acute repeat dose toxicity; Oral; Gavage/Intubation; dose end: 34 day; group: systemic; systemic / pathology microscopic / intestine small / erosion + systemic / pathology microscopic / intestine small / hemorrhage + systemic / ….
The subject of data set [5] is rat. To be noted: Carcinogenicity, fischer, Oral, Feed, dose end: 2 year, group: systemic.
Data set [6] deals with rat. Conditions: Prenatal developmental toxicity study, sprague dawley, Oral, Gavage/Intubation, dose end: 19 GD.
Data set [7] concerns rat. To be noted: Carcinogenicity, fischer, Oral, Gavage/Intubation, dose end: 105 week, group: systemic.
Data set [8] deals with mouse. To be noted: Carcinogenicity; b6c3f1; Oral; Gavage/Intubation; dose end: 105 week; group: systemic; systemic / pathology microscopic / nose / dilatation + systemic / pathology microscopic / nose / hyperplasia + systemic / pathology ….
Data set [9] deals with mouse. Conditions: Subchronic oral toxicity in rodents, b6c3f1, Gavage/Intubation, dose end: 14 week, group: systemic.
Data set [10] relates to rat. To be noted: Subchronic oral toxicity in rodents, fischer, Gavage/Intubation, dose end: 14 week, group: systemic.
For data set [11], the system named is rat. To be noted: Multigenerational reproductive toxicity study, sprague dawley, Oral, Gavage/Intubation, dose end: 2 generation.
For data set [12], the system named is rat. To be noted: Sub-acute repeat dose toxicity, sprague dawley, Oral, Gavage/Intubation, dose end: 4 week, group: systemic.
Data set [13] relates to rat. Conditions: Fertility (Segment I), wistar, Oral, Gavage/Intubation, dose end: 7 GD.
The subject of data set [14] is rabbit. To be noted: Prenatal developmental toxicity study, himalayan, Oral, Gavage/Intubation, dose end: 18 GD.
Data set [15] concerns rabbit. Conditions: Prenatal developmental toxicity study, himalayan, Injection, Intravenous, dose end: 18 GD, group: maternal.
The subject of data set [16] is rabbit. Conditions: Prenatal developmental toxicity study, himalayan, Oral, Gavage/Intubation, dose end: 18 GD. This is another data set of the same source.
Data set [17] deals with rat. Conditions: Sub-acute repeat dose toxicity; long evans; Oral; Gavage/Intubation; dose end: 4 week; group: systemic; systemic / in life observation / body weight / body weight gain + systemic / in life observation / clinical signs / drooping eyelids (ptosis….
Data set [18] deals with mouse. Conditions: Combined chronic toxicity/carcinogenicity; other; Oral; Feed; dose end: 365 day; group: systemic; systemic / pathology gross / full gross necropsy / lymphoma malignant.
For data set [19], the system named is rat. To be noted: Combined chronic toxicity/carcinogenicity; fischer; Oral; Feed; dose end: 365 day; group: systemic; systemic / in life observation / body weight / body weight.
Setting [20] is: systemic / hematology / platelet / platelet + systemic / in life observation / body weight / body weight gain + systemic / in life ….
[21] abbreviates: systemic / in life observation / body weight / body weight gain.
The mark [22] stands for this setting: systemic / clinical chemistry / [other] / [other] + systemic / clinical chemistry / protein / protein + systemic / hematology / erythrocyte….
Setting [23] is: systemic / clinical chemistry / alanine aminotransferase (alt/sgpt) / alanine aminotransferase (alt/sgpt) + systemic / clinical chemistry / ….
Setting [24] is: systemic / in life observation / clinical signs / emesis.
Where [25] appears, read: systemic / in life observation / body weight / body weight + systemic / pathology microscopic / urinary bladder / hyperplasia.
The mark [26] stands for this setting: systemic / in life observation / body weight / body weight + systemic / pathology microscopic / urinary bladder / hyperplasia + systemic / ….
The mark [27] stands for this setting: group: developmental, developmental / developmental malformation / bone / unossified + systemic / in life observation / body weight / fetal weight.
Setting [28] is: group: maternal, systemic / in life observation / body weight / body weight + systemic / in life observation / body weight / body weight gain + systemic / in….
The mark [29] stands for this setting: systemic / pathology microscopic / nose / atrophy + systemic / pathology microscopic / nose / metaplasia.
Where [30] appears, read: systemic / organ weight / liver / relative to body weight.
The mark [31] stands for this setting: systemic / clinical chemistry / cytochrome p450, nos / cytochrome p450, nos.
Where [32] appears, read: systemic / organ weight / liver / absolute + systemic / organ weight / liver / relative to body weight + systemic / pathology microscopic / ….
The mark [33] stands for this setting: group: offspring, developmental / developmental landmark / nipple development / nipple development + systemic / in life observation / body weight / offspring….
The mark [34] stands for this setting: group: offspring, systemic / pathology microscopic / stomach / hyperkeratosis + systemic / pathology microscopic / stomach / hyperplasia.
[35] abbreviates: group: parental, systemic / in life observation / body weight / body weight + systemic / in life observation / body weight / dam weight + systemic / in life ….
Setting [36] is: group: parental, systemic / organ weight / liver / relative to body weight + systemic / pathology microscopic / stomach / hyperkeratosis + systemic / ….
The mark [37] stands for this setting: group: reproductive, reproductive / offspring survival early / live fetuses / live fetuses.
Where [38] appears, read: systemic / clinical chemistry / adrenocorticotropic hormone (acth) / adrenocorticotropic hormone (acth).
The mark [39] stands for this setting: systemic / clinical chemistry / adrenocorticotropic hormone (acth) / adrenocorticotropic hormone (acth) + systemic / clinical chemistry / ….
The mark [40] stands for this setting: group: maternal, reproductive / reproductive performance / implantations / implantations + reproductive / reproductive performance / preimplantation loss / ….
[41] abbreviates: group: parental, systemic / in life observation / clinical signs / salivation + systemic / in life observation / clinical signs / tremors + systemic / in ….
Setting [42] is: group: developmental, developmental / developmental malformation / bone / incomplete ossification + developmental / developmental malformation / bone / short + ….
The mark [43] stands for this setting: group: maternal, systemic / in life observation / clinical signs / motor activity + systemic / in life observation / mortality / mortality.
[44] abbreviates: systemic / in life observation / body weight / body weight gain + systemic / in life observation / food consumption / food consumption + ….
The mark [45] stands for this setting: group: developmental, developmental / developmental malformation / paw / digit / [other].
Setting [46] is: group: maternal, systemic / in life observation / body weight / body weight gain + systemic / in life observation / clinical signs / [other] + systemic / in ….
[47] abbreviates: group: maternal, systemic / in life observation / clinical signs / ataxia + systemic / in life observation / clinical signs / motor activity + systemic / in ….

For the compound `NC(=O)n1c(O)c(C(=O)c2ccc(Cl)s2)c2cc(Cl)ccc21`, the LOAEL was more than 100 mg/kg/day with rat [1] (setting [20]), more than 30 mg/kg/day with rat [2] (setting [22]), more than 30 mg/kg/day in the data set on primate [3] (setting [23]) and more than 10 mg/kg/day in the data set with primate [4]. In addition, the NOAEL in the data set on rat [1] (setting [20]) is not below 100 mg/kg/day; in the data set with rat [2] (setting [22]), not below 30 mg/kg/day; in the data set on primate [3] (setting [23]), not below 30 mg/kg/day; with primate [4], not below 10 mg/kg/day. In addition, the LEL with rat [1] (setting [21]) came out at 10 mg/kg/day; with rat [2] (systemic / clinical chemistry / protein / protein + systemic / hematology / erythrocyte (rbc) count differential / erythrocyte (rbc) + …) it was 10 mg/kg/day; in the data set on primate [3] (setting [24]), 1 mg/kg/day; in the data set on primate [4], 3 mg/kg/day. Also, the NEL was less than 10 mg/kg/day in the data set on rat [1] (setting [21]), 3 mg/kg/day in the data set on rat [2] (setting [22]), less than 1 mg/kg/day in the data set with primate [3] (setting [24]) and 1 mg/kg/day with primate [4].

Regarding `Cc1ccccc1N.Cl` [2-Methylaniline hydrochloride], in the data set with rat [5] (setting [25]), the LOAEL was found to be 300 mg/kg/day and the NOAEL is less than 300 mg/kg/day. For the same compound, in the data set with rat [5] (setting [26]), the LEL was determined as 300 mg/kg/day and the NEL is less than 300 mg/kg/day.

Consider `C/C=C/c1ccc(O)c(OC)c1` [Isoeugenol], for which the LEL was 1000 mg/kg/day in the data set with rat [6] (setting [27]); 250 mg/kg/day in the data set on rat [6] (setting [28]); 75 mg/kg/day in the data set on rat [7] (setting [29]); 75 mg/kg/day in the data set on mouse [8]; 37.5 mg/kg/day with mouse [9] (setting [30]); 75 mg/kg/day with rat [10] (setting [31]). Further, the LEL in the data set on rat [11] (setting [34]) was determined as 70 mg/kg/day; in the data set on rat [11] (setting [36]), 70 mg/kg/day; with rat [11] (setting [37]), 700 mg/kg/day. Also, the LOAEL was 1000 mg/kg/day in the data set with rat [6] (setting [27]); 250 mg/kg/day with rat [6] (setting [28]); 150 mg/kg/day in the data set on rat [7] (setting [29]); 75 mg/kg/day with mouse [8]; 600 mg/kg/day in the data set on mouse [9] (systemic / pathology microscopic / nose / atrophy + systemic / in life observation / body weight / body weight + systemic / in life …); 600 mg/kg/day with rat [10] (setting [32]). Besides, the LOAEL in the data set on rat [11] (setting [33]), with rat [11] (setting [35]) and in the data set with rat [11] (setting [37]) was more than 700 mg/kg/day in each case. Besides, the NEL was 500 mg/kg/day in the data set with rat [6] (setting [27]); less than 250 mg/kg/day with rat [6] (setting [28]); less than 75 mg/kg/day in the data set with rat [7] (setting [29]); less than 75 mg/kg/day in the data set with mouse [8]; less than 37.5 mg/kg/day with mouse [9] (setting [30]); 37.5 mg/kg/day in the data set on rat [10] (setting [31]). For the same compound, the values for the NEL with rat [11] (setting [34]), with rat [11] (setting [36]) and in the data set on rat [11] (setting [37]) were less than 70 mg/kg/day, less than 70 mg/kg/day and 230 mg/kg/day, respectively. Also, the NOAEL is 500 mg/kg/day in the data set on rat [6] (setting [27]); less than 250 mg/kg/day with rat [6] (setting [28]); 75 mg/kg/day with rat [7] (systemic / pathology microscopic / nose / atrophy + systemic / pathology microscopic / nose / metaplasia + systemic / pathology microscopic…); less than 75 mg/kg/day with mouse [8]; 300 mg/kg/day in the data set with mouse [9] (systemic / pathology microscopic / nose / atrophy + systemic / organ weight / lung / absolute); 300 mg/kg/day in the data set on rat [10] (setting [32]). Moreover, the NOAEL in the data set with rat [11] (setting [33]), in the data set on rat [11] (setting [35]) and in the data set on rat [11] (setting [37]) was not below 700 mg/kg/day in each case.

Take `COc1cccc([C@H](O)C2CCN(CCc3ccc(F)cc3)CC2)c1OC` [Volinanserin]: the LEL in the data set on rat [12] (setting [38]) amounted to 12.5 mg/kg/day; in the data set on rat [13] (setting [40]) it was 200 mg/kg/day; in the data set with rabbit [14] (setting [42]), 40 mg/kg/day; with rabbit [14] (setting [43]), 40 mg/kg/day; in the data set on rabbit [15] (systemic / in life observation / body weight / body weight gain + systemic / in life observation / food consumption / food consumption), 3 mg/kg/day; in the data set with rabbit [16] (setting [45]) it was 50 mg/kg/day. Further, the LEL with rabbit [16] (setting [47]) amounted to 50 mg/kg/day; with rat [17], 150 mg/kg/day. For the same compound, the NEL was less than 12.5 mg/kg/day in the data set with rat [12] (setting [38]); 20 mg/kg/day in the data set with rat [13] (setting [41]); 12.5 mg/kg/day in the data set on rabbit [14] (setting [42]); 12.5 mg/kg/day with rabbit [14] (setting [43]); 0.2 mg/kg/day in the data set on rabbit [15] (setting [44]); less than 50 mg/kg/day in the data set on rabbit [16] (setting [45]). Further, the NEL in the data set on rabbit [16] (setting [47]) was less than 50 mg/kg/day; in the data set with rat [17], 50 mg/kg/day. The LOAEL in the data set on rat [12] (setting [39]) was more than 75 mg/kg/day; in the data set on rat [13] (setting [40]), more than 200 mg/kg/day; in the data set with rabbit [14] (setting [42]), more than 40 mg/kg/day; in the data set on rabbit [14] (setting [43]), more than 40 mg/kg/day; in the data set on rabbit [15] (setting [44]), more than 4.5 mg/kg/day; in the data set with rabbit [16] (setting [45]) it was more than 100 mg/kg/day. For the same compound, the results for the LOAEL with rabbit [16] (setting [46]) and in the data set on rat [17] were more than 100 mg/kg/day and more than 150 mg/kg/day, respectively. Further, the NOAEL in the data set with rat [12] (setting [39]) is not below 75 mg/kg/day; in the data set with rat [13] (setting [40]) it was not below 200 mg/kg/day; in the data set on rat [13] (setting [41]), 20 mg/kg/day; with rabbit [14] (setting [42]), not below 40 mg/kg/day; in the data set with rabbit [14] (setting [43]), not below 40 mg/kg/day; in the data set with rabbit [15] (setting [44]), not below 4.5 mg/kg/day. Moreover, the values for the NOAEL with rabbit [16] (setting [45]), in the data set with rabbit [16] (setting [46]) and in the data set on rat [17] were not below 100 mg/kg/day, not below 100 mg/kg/day and not below 150 mg/kg/day, respectively.

For `Cc1ccc(NC(N)=O)cc1` [p-Tolylurea], in the data set with mouse [18], the LEL is 300 mg/kg/day, the LOAEL was more than 300 mg/kg/day, the NEL was less than 300 mg/kg/day and the NOAEL was not below 300 mg/kg/day. Further, in the data set with rat [19], the LEL came out at 100 mg/kg/day, the LOAEL was more than 100 mg/kg/day, the NEL is less than 100 mg/kg/day and the no observed adverse effect level (NOAEL) was not below 100 mg/kg/day.
